# Experimental data: US8980887B2, “2-aryl imidazo[1,2-a]pyridine-3-acetamide derivatives, preparation methods and uses thereof” (Institute of Pharmacology, priority 2010, dated 2015)
# pIC50, pKi: −log10 of the molar value.
# Tests used:
# [1] = biological target: TSPO protein separated and purified from rat heart (Rattus norvegicus (Rat), UniProt P16257); test: TSPO and radioligand (3H-PK11195) competitive binding test; details: for Inhibition rate (%): n = 6 times; for pIC50 / pKi: 9 gradient concentrations, plotting and fitting
# Procedure: In the present test, TSPO protein separated and purified from rat heart was used as screening target, via competitive binding test with radioligand (^3H-PK11195), to screen TSPO ligand compounds.
# Wister rats, 220-260 g, female and male, were sacrificed by decapitation and the rat heart were rapidly separated, weighed and to which homogenized in 10 times volume of Tris-HCl buffer solution (50 mM Tris-HCl, 5 mM MgCl2, 1 mM EDTA, 0.5% (W/V) BSA, 1 mM PMSF, 3 μg/ml proteinase inhibitor, 0.1% NaN3, 0.32M sucrose, pH 7.4) at 15,000 rpm for 30 s, total 5 times. The homogenate was centrifuged under 1000×g for 10 minutes and the supernatant was then centrifuged under 30000×g for 20 minutes. The precipitate was collected, and resuspended with 10 times volume of Tris-HCl buffer solution (pH 7.4) relative to the original weight, then centrifuged under 30000×g for 20 minutes. The precipitate was washed with the same buffer solution, centrifuged under 30000×g for 20 minutes and the precipitate was suspended with the above buffer solution. After sub-packaged (the whole operation procedures were performed under ice bath), the product was stored at −80° C.
# 3) Competitive Binding Test of Drug to the Receptor (Rat Heart TSPO) and Radioligand (^3H-PK11195):
# (1) tubes were placed in reaction condition of 30° C.
# (2) all tubes were added with 20 μg of receptor protein in order;
# (3) the test tubes were added in order with 20 μL of drugs in certain concentrations;
# (4) the non-specific binding tubes were added with 20 μL of non-tagged ligand (PK11195), the final concentration of the non-tagged ligand was 0.1 mM, pre-reacted for 30 min;
# (5) all tubes were added in order with 25 μL ^3H-PK11195, the final concentration of the labeled ligand was 1.5 nM;
# (6) Tris-HCl Buffer pH7.4 was used to complement the reaction volumes of all tubes to reach 200 μL;
# (7) the reaction was performed under 30° C. reaction condition for 1 h;
# (8) Then samples were applied to 49-type glass fibre filter, vacuum suction filtered, then washed with 2 ml ice-cold Tris-HCl buffer solution (50 mM Tris-HCl buffer solution, 1 mM EDTA, 5 mM MgCl2, 1 mM PMSF, 0.1% NaN3, 3 μg/ml proteinase inhibitor, pH 7.4). The filter was dried and placed in a scintillation vial with 1 ml of scintillation fluid. The radio-activity was measured by a scintillation counter.
SMILES,melting point,Inhibition rate (%) ([1]; 1 × 10^−5M),Inhibition rate (%) ([1]; 1 × 10^−7M),Inhibition rate (%) ([1]; 1 × 10^−9M),pIC50 [1],pKi [1]
"CCN(Cc1ccccc1)C(=O)Cc1c(-c2ccc(Cl)cc2)nc2cc(C)ccn12 [Compound 1, N-benzyl-N-ethyl-2-(4-chlorophenyl)-7-methylimidazo[1,2-a]pyridine-3-acetamide]",192 to 193 °C,100%,87%,12%,,
"CCN(Cc1ccccn1)C(=O)Cc1c(-c2ccc(Cl)cc2)nc2cc(C)ccn12.Cl [Compound 2, N-ethyl-N-(2-pyridinylmethyl)-2-(4-chlorophenyl)-7-methylimidazo[1,2-a]pyridine-3-acetamide.hydrochloride]",178 to 180 °C,100%,59%,0%,,
"CCN(Cc1cccnc1)C(=O)Cc1c(-c2ccc(Cl)cc2)nc2cc(C)ccn12.Cl [Compound 3, N-ethyl-N-(3-pyridinylmethyl)-2-(4-chlorophenyl)-7-methylimidazo[1,2-a]pyridine-3-acetamide.hydrochloride]",236 to 238 °C,100%,25%,0%,,
"CCN(Cc1ccncc1)C(=O)Cc1c(-c2ccc(Cl)cc2)nc2cc(C)ccn12.Cl [Compound 4, N-ethyl-N-(4-pyridinylmethyl)-2-(4-chlorophenyl)-7-methylimidazo[1,2-a]pyridine-3-acetamide.hydrochloride]",245 to 247 °C,100%,50%,0%,,
"COCCN(Cc1ccccn1)C(=O)Cc1c(-c2ccc(Cl)cc2)nc2cc(C)ccn12.Cl [Compound 5, N-(2-methoxyethyl)-N-(2-pyridinylmethyl)-2-(4-chlorophenyl)-7-methylimidazo[1,2-a]pyridine-3-acetamide.hydrochloride]",238 to 239 °C,100%,43%,0%,,
"COCCN(Cc1cccnc1)C(=O)Cc1c(-c2ccc(Cl)cc2)nc2cc(C)ccn12.Cl [Compound 6, N-(2-methoxyethyl)-N-(3-pyridinylmethyl)-2-(4-chlorophenyl)-7-methylimidazo[1,2-a]pyridine-3-acetamide.hydrochloride]",234 to 235 °C,70%,0%,0%,,
"CCN(Cc1ccccc1)C(=O)Cc1c(-c2ccc(Cl)c(Cl)c2)nc2cc(C)ccn12 [Compound 7, N-benzyl-N-ethyl-2-(3,4-dichlorophenyl)-7-methylimidazo[1,2-a]pyridine-3-acetamide]",180 to 182 °C,99%,72%,10%,6.94,7.31
"CCN(Cc1cccnc1)C(=O)Cc1c(-c2ccc(Cl)c(Cl)c2)nc2cc(C)ccn12.Cl [Compound 9, N-ethyl-N-(3-pyridinylmethyl)-2-(3,4-dichlorophenyl)-7-methylimidazo[1,2-a]pyridine-3-acetamide.hydrochloride]",245 to 248 °C,86%,8%,0%,,
"COCCN(Cc1cccnc1)C(=O)Cc1c(-c2ccc(Cl)c(Cl)c2)nc2cc(C)ccn12.Cl [Compound 12, N-(2-methoxyethyl)-N-(3-pyridinylmethyl)-2-(3,4-dichlorophenyl)-7-methylimidazo[1,2-a]pyridine-3-acetamide.hydrochloride]",235 to 237 °C,80%,20%,0%,,
"CCN(Cc1ccccn1)C(=O)Cc1c(-c2ccc(C)cc2)nc2cc(C)ccn12.Cl [Compound 14, N-ethyl-N-(2-pyridinylmethyl)-2-(4-methylphenyl)-7-methylimidazo[1,2-a]pyridine-3-acetamide.hydrochloride]",218 to 220 °C,97%,66%,14%,7.04,7.41
"CCN(Cc1cccnc1)C(=O)Cc1c(-c2ccc(C)cc2)nc2cc(C)ccn12.Cl [Compound 15, N-ethyl-N-(3-pyridinylmethyl)-2-(4-methylphenyl)-7-methylimidazo[1,2-a]pyridine-3-acetamide.hydrochloride]",251 to 253 °C,90%,15%,0%,,
"CCN(Cc1ccncc1)C(=O)Cc1c(-c2ccc(C)cc2)nc2cc(C)ccn12.Cl [Compound 16, N-ethyl-N-(4-pyridinylmethyl)-2-(4-methylphenyl)-7-methylimidazo[1,2-a]pyridine-3-acetamide.hydrochloride]",253 to 255 °C,72%,41%,0%,,
"COCCN(Cc1ccccn1)C(=O)Cc1c(-c2ccc(C)cc2)nc2cc(C)ccn12.Cl [Compound 17, N-(2-methoxyethyl)-N-(2-pyridinylmethyl)-2-(4-methylphenyl)-7-methylimidazo[1,2-a]pyridine-3-acetamide.hydrochloride]",239 to 240 °C,83%,9%,0%,,
"COCCN(Cc1cccnc1)C(=O)Cc1c(-c2ccc(C)cc2)nc2cc(C)ccn12.Cl [Compound 18, N-(2-methoxyethyl)-N-(3-pyridinylmethyl)-2-(4-methylphenyl)-7-methylimidazo[1,2-a]pyridine-3-acetamide.hydrochloride]",224 to 226 °C,69%,32%,0%,,
"CCN(Cc1ccccc1)C(=O)Cc1c(-c2ccc(OC)cc2)nc2cc(C)ccn12 [Compound 19, N-benzyl-N-ethyl-2-(4-methoxyphenyl)-7-methylimidazo[1,2-a]pyridine-3-acetamide]",175 to 178 °C,94%,76%,0%,,
"CCN(Cc1ccccn1)C(=O)Cc1c(-c2ccc(OC)cc2)nc2cc(C)ccn12.Cl [Compound 20, N-ethyl-N-(2-pyridinylmethyl)-2-(4-methoxyphenyl)-7-methylimidazo[1,2-a]pyridine-3-acetamide.hydrochloride]",228 to 230 °C,61%,63%,0%,,
"CCN(Cc1cccnc1)C(=O)Cc1c(-c2ccc(OC)cc2)nc2cc(C)ccn12.Cl [Compound 21, N-ethyl-N-(3-pyridinylmethyl)-2-(4-methoxyphenyl)-7-methylimidazo[1,2-a]pyridine-3-acetamide.hydrochloride]",230 to 232 °C,43%,11%,0%,,
"CCN(Cc1ccncc1)C(=O)Cc1c(-c2ccc(OC)cc2)nc2cc(C)ccn12.Cl [Compound 22, N-ethyl-N-(4-pyridinylmethyl)-2-(4-methoxyphenyl)-7-methylimidazo[1,2-a]pyridine-3-acetamide.hydrochloride]",239 to 242 °C,63%,9%,4%,,
"COCCN(Cc1ccccn1)C(=O)Cc1c(-c2ccc(OC)cc2)nc2cc(C)ccn12.Cl [Compound 23, N-(2-methoxyethyl)-N-(2-pyridinylmethyl)-2-(4-methoxyphenyl)-7-methylimidazo[1,2-a]pyridine-3-acetamide.hydrochloride]",214 to 216 °C (dec.),85%,2%,3%,,
"COCCN(Cc1cccnc1)C(=O)Cc1c(-c2ccc(OC)cc2)nc2cc(C)ccn12.Cl [Compound 24, N-(2-methoxyethyl)-N-(3-pyridinylmethyl)-2-(4-methoxyphenyl)-7-methylimidazo[1,2-a]pyridine-3-acetamide.hydrochloride]",243 to 245 °C,17%,3%,0%,,
"CN1C(=O)CN=C(c2ccc(Cl)cc2)c2cc(Cl)ccc21 [Compound R05-4864, 4′-chlorodiazepam, reference compound]",,100%,82%,57%,,
